Data from patent US20150105252A1, “SUBSTITUTED PYRAZOLES AS HERBICIDES” (E I DU PONT DE NEMOURS AND COMPANY, priority 2013, published 2015).

Legend:
canarygrass = experiment: Test D preemergence; type: in vivo, Phalaris minor; details: for Plant response rating (scale 0 to 100), Canarygrass: 16 g ai/ha, taken as preemergence; for Plant response rating, Canarygrass: Preemergence, scale 0 to 100
How it was run: (§1)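 Scores of 0 (no effect) to 100 (complete control) come from visual comparison with untreated plants 14–21 days after spraying. Applications were made pre-emergence to silt loam or post-emergence to plants 2–18 cm tall.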

kochia [1] = experiment: Test D preemergence; type: in vivo, Kochia scoparia; details: for Plant response rating (scale 0 to 100), Kochia: 16 g ai/ha, taken as preemergence; for Plant response rating, Kochia: Preemergence, scale 0 to 100
Excerpt: (§2) Seeds of plant species selected from bluegrass (annual bluegrass, Poa annua), blackgrass (Alopecurus myosuroides), canarygrass (littleseed canarygrass, Phalaris minor), chickweed (common chickweed, Stellaria media), galium (catchweed bedstraw, Galium aparine), bromegrass, downy (downy bromegrass, Bromus tectorum), field poppy (Papaver rhoeas), field violet (Viola arvensis), foxtail, green (green foxtail, Setaria viridis), deadnettle (henbit deadnettle, Lamium amplexicaule), ryegrass, Italian (Italian ryegrass, Lolium multiflorum), kochia (Kochia scoparia), lambsquarters (Chenopodium album), oilseed rape (Brassica napus), pigweed (redroot pigweed, Amaranthus retroflexus), chamomile (scentless chamomile, Matricaria inodora), speedwell (bird's-eye speedwell, Veronica persica), barley, spring (spring barley, Hordeum vulgare), wheat, spring (spring wheat, Triticum aestivum), buckwheat, wild (wild buckwheat, Polygonum convolvulus), mustard, wild (wild mustard, Sinapis arvensis), oat, wild (wild oat, Avena fatua), radish, wild (wild radish, Raphanus raphanistrum), windgrass (Apera spica-venti), Russian thistle (Salsola kali), barley, winter (winter barley, Hordeum vulgare), and wheat, winter (winter wheat, Triticum aestivum) were planted into a silt loam soil and treated preemergence with test chemicals formulated in a non-phytotoxic solvent mixture which included a surfactant.
(§3) At the same time, these species were planted in pots containing Redi-Earth® planting medium (Scotts Company, 14111 Scottslawn Road, Marysville, Ohio 43041) comprising spaghnum peat moss, vermiculite, wetting agent and starter nutrients and treated with postemergence applications of the test chemicals formulated in the same manner. Plants ranged in height from 2 to 18 cm (1- to 4-leaf stage). Treated plants and controls were maintained in a controlled growth environment for 14 to 21 days after which time all species were compared to controls and visually evaluated. Plant response ratings, summarized in Table D, are based on a scale of 0 to 100 where 0 is no effect and 100 is complete control. A dash (-) response means no test result.

radish, wild = experiment: Test D postemergence; type: in vivo, Raphanus raphanistrum; details: scale 0 to 100
How it was run: as §1

ryegrass, Italian = experiment: Test D postemergence; type: in vivo, Lolium multiflorum; details: scale 0 to 100; for Plant response rating, Ryegrass, Italian: 16 g ai/ha
How it was run: as §1

chamomile = experiment: Test D postemergence; type: in vivo, Matricaria inodora; details: scale 0 to 100; for Plant response rating, Chamomile: 16 g ai/ha
Excerpt: as §2, §3

buckwheat, wild = experiment: Test D preemergence; type: in vivo, Polygonum convolvulus; details: for Plant response rating (scale 0 to 100), Buckwheat, Wild: 16 g ai/ha, taken as preemergence; for Plant response rating, Buckwheat, Wild: Preemergence, scale 0 to 100
How it was run: as §1

kochia [2] = experiment: Test D postemergence; type: in vivo, Kochia scoparia; details: scale 0 to 100; for Plant response rating, Kochia: 16 g ai/ha
Excerpt: as §2, §3

windgrass [3] = experiment: Test C postemergence; type: in vivo, Apera spica-venti; details: 62 g ai/ha, scale 0 to 100
speedwell [4] = experiment: Test D postemergence; type: in vivo, Veronica persica; details: scale 0 to 100; for Plant response rating, Speedwell: 16 g ai/ha
Excerpt: as §2, §3

field violet = experiment: Test D preemergence; type: in vivo, Viola arvensis; details: for Plant response rating (scale 0 to 100), Field Violet: 16 g ai/ha, taken as preemergence; for Plant response rating, Field Violet: Preemergence, scale 0 to 100
Excerpt: as §2, §3

lambsquarters = experiment: Test D postemergence; type: in vivo, Chenopodium album; details: scale 0 to 100; for Plant response rating, Lambsquarters: 16 g ai/ha
How it was run: as §1

windgrass [5] = experiment: Test D preemergence; type: in vivo, Apera spica-venti; details: for Plant response rating (scale 0 to 100), Windgrass: 16 g ai/ha, taken as preemergence; for Plant response rating, Windgrass: Preemergence, scale 0 to 100
Excerpt: as §2, §3

windgrass [6] = experiment: Test C postemergence; type: in vivo, Apera spica-venti; details: 125 g ai/ha, scale 0 to 100, 0 no effect, 100 complete control
speedwell [7] = experiment: Test D preemergence; type: in vivo, Veronica persica; details: for Plant response rating, Speedwell: Preemergence, scale 0 to 100
How it was run: as §1

Compound: CCc1cc(C(=O)NOC(C)C)nn1Cc1cccc(OC(F)(F)F)c1 [Compound 70]
- Plant response rating (scale 0 to 100), Canarygrass (canarygrass): 0
- Plant response rating, Canarygrass (canarygrass; 31 g ai/ha): 0
- Plant response rating, Canarygrass (canarygrass; 62 g ai/ha): 0
- Plant response rating, Canarygrass (canarygrass; 125 g ai/ha): 20
- Plant response rating, Canarygrass (canarygrass; 250 g ai/ha): 75
- Plant response rating (scale 0 to 100), Kochia (kochia [1]): 0
- Plant response rating, Kochia (kochia [1]; 31 g ai/ha): 10
- Plant response rating, Kochia (kochia [1]; 62 g ai/ha): 20
- Plant response rating, Kochia (kochia [1]; 125 g ai/ha): 30
- Plant response rating, Kochia (kochia [1]; 250 g ai/ha): 50
- Plant response rating, Radish, Wild (radish, wild; Postemergence, 16 g ai/ha): 10
- Radish, Wild plant response rating (radish, wild; Postemergence, 31 g ai/ha): 10
- Radish, Wild plant response rating (radish, wild; Postemergence, 125 g ai/ha): 50
- Radish, Wild plant response rating (radish, wild; Postemergence, 250 g ai/ha): 85
- Radish, Wild plant response rating (radish, wild; postemergence, 62 g ai/ha): 10
- Plant response rating, Ryegrass, Italian (ryegrass, Italian; Postemergence): 0
- Ryegrass, Italian plant response rating (ryegrass, Italian; Postemergence, 31 g ai/ha): 0
- Ryegrass, Italian plant response rating (ryegrass, Italian; Postemergence, 125 g ai/ha): 10
- Ryegrass, Italian plant response rating (ryegrass, Italian; Postemergence, 250 g ai/ha): 15
- Ryegrass, Italian plant response rating (ryegrass, Italian; postemergence, 62 g ai/ha): 0
- Plant response rating, Chamomile (chamomile; Postemergence): 10
- Chamomile plant response rating (chamomile; Postemergence, 31 g ai/ha): 30
- Chamomile plant response rating (chamomile; Postemergence, 125 g ai/ha): 40
- Chamomile plant response rating (chamomile; Postemergence, 250 g ai/ha): 50
- Chamomile plant response rating (chamomile; postemergence, 62 g ai/ha): 30
- Plant response rating (scale 0 to 100), Buckwheat, Wild (buckwheat, wild): 0
- Plant response rating, Buckwheat, Wild (buckwheat, wild; 31 g ai/ha): 0
- Plant response rating, Buckwheat, Wild (buckwheat, wild; 62 g ai/ha): 0
- Plant response rating, Buckwheat, Wild (buckwheat, wild; 125 g ai/ha): 0
- Plant response rating, Buckwheat, Wild (buckwheat, wild; 250 g ai/ha): 100
- Plant response rating, Kochia (kochia [2]; Postemergence): 40
- Kochia plant response rating (kochia [2]; Postemergence, 31 g ai/ha): 85
- Kochia plant response rating (kochia [2]; Postemergence, 125 g ai/ha): 98
- Kochia plant response rating (kochia [2]; Postemergence, 250 g ai/ha): 95
- Kochia plant response rating (kochia [2]; postemergence, 62 g ai/ha): 70
- Windgrass plant response rating (windgrass [3]): 25
- Plant response rating, Speedwell (speedwell [4]; Postemergence): 100
- Speedwell plant response rating (speedwell [4]; Postemergence, 31 g ai/ha): 100
- Speedwell plant response rating (speedwell [4]; Postemergence, 125 g ai/ha): 100
- Speedwell plant response rating (speedwell [4]; Postemergence, 250 g ai/ha): 100
- Speedwell plant response rating (speedwell [4]; postemergence, 62 g ai/ha): 100
- Plant response rating (scale 0 to 100), Field Violet (field violet): 0
- Plant response rating, Field Violet (field violet; 31 g ai/ha): 0
- Plant response rating, Field Violet (field violet; 62 g ai/ha): 0
- Plant response rating, Field Violet (field violet; 125 g ai/ha): 50
- Plant response rating, Field Violet (field violet; 250 g ai/ha): 50
- Plant response rating, Lambsquarters (lambsquarters; Postemergence): 80
- Lambsquarters plant response rating (lambsquarters; Postemergence, 31 g ai/ha): 85
- Lambsquarters plant response rating (lambsquarters; Postemergence, 125 g ai/ha): 98
- Lambsquarters plant response rating (lambsquarters; Postemergence, 250 g ai/ha): 98
- Lambsquarters plant response rating (lambsquarters; postemergence, 62 g ai/ha): 98
- Plant response rating (scale 0 to 100), Windgrass (windgrass [5]): 0
- Plant response rating, Windgrass (windgrass [5]; 31 g ai/ha): 0
- Plant response rating, Windgrass (windgrass [5]; 62 g ai/ha): 0
- Plant response rating, Windgrass (windgrass [5]; 125 g ai/ha): 0
- Plant response rating, Windgrass (windgrass [5]; 250 g ai/ha): 0
- Plant response rating, Windgrass (windgrass [6]): 50

Compound: Cc1cc(C(=O)NCC(F)(F)F)nn1Cc1ccnc(C(F)(F)F)c1 [Compound 74]
- Plant response rating (scale 0 to 100), Canarygrass (canarygrass): 0
- Plant response rating, Canarygrass (canarygrass; 31 g ai/ha): 0
- Plant response rating, Canarygrass (canarygrass; 62 g ai/ha): 0
- Plant response rating, Canarygrass (canarygrass; 125 g ai/ha): 5
- Plant response rating (scale 0 to 100), Kochia (kochia [1]): 50
- Plant response rating, Kochia (kochia [1]; 31 g ai/ha): 85
- Plant response rating, Kochia (kochia [1]; 62 g ai/ha): 100
- Plant response rating, Kochia (kochia [1]; 125 g ai/ha): 100
- Plant response rating, Ryegrass, Italian (ryegrass, Italian; Postemergence): 0
- Ryegrass, Italian plant response rating (ryegrass, Italian; Postemergence, 31 g ai/ha): 5
- Ryegrass, Italian plant response rating (ryegrass, Italian; Postemergence, 125 g ai/ha): 10
- Ryegrass, Italian plant response rating (ryegrass, Italian; postemergence, 62 g ai/ha): 5
- Plant response rating, Chamomile (chamomile; Postemergence): 15
- Chamomile plant response rating (chamomile; Postemergence, 31 g ai/ha): 15
- Chamomile plant response rating (chamomile; Postemergence, 125 g ai/ha): 50
- Chamomile plant response rating (chamomile; postemergence, 62 g ai/ha): 20
- Plant response rating (scale 0 to 100), Buckwheat, Wild (buckwheat, wild): 25
- Plant response rating, Buckwheat, Wild (buckwheat, wild; 31 g ai/ha): 35
- Plant response rating, Buckwheat, Wild (buckwheat, wild; 62 g ai/ha): 45
- Plant response rating, Buckwheat, Wild (buckwheat, wild; 125 g ai/ha): 65
- Plant response rating, Kochia (kochia [2]; Postemergence): 15
- Kochia plant response rating (kochia [2]; Postemergence, 31 g ai/ha): 25
- Kochia plant response rating (kochia [2]; Postemergence, 125 g ai/ha): 65
- Kochia plant response rating (kochia [2]; postemergence, 62 g ai/ha): 35
- Windgrass plant response rating (windgrass [3]): 0
- Plant response rating, Speedwell (speedwell [4]; Postemergence): 75
- Speedwell plant response rating (speedwell [4]; Postemergence, 31 g ai/ha): 60
- Speedwell plant response rating (speedwell [4]; Postemergence, 125 g ai/ha): 75
- Speedwell plant response rating (speedwell [4]; postemergence, 62 g ai/ha): 70
- Plant response rating (scale 0 to 100), Field Violet (field violet): 25
- Plant response rating, Field Violet (field violet; 31 g ai/ha): 60
- Plant response rating, Field Violet (field violet; 62 g ai/ha): 60
- Plant response rating, Field Violet (field violet; 125 g ai/ha): 95
- Plant response rating, Lambsquarters (lambsquarters; Postemergence): 70
- Lambsquarters plant response rating (lambsquarters; Postemergence, 31 g ai/ha): 70
- Lambsquarters plant response rating (lambsquarters; Postemergence, 125 g ai/ha): 85
- Lambsquarters plant response rating (lambsquarters; postemergence, 62 g ai/ha): 75
- Plant response rating (scale 0 to 100), Speedwell (speedwell [7]; 16 g ai/ha, taken as preemergence): 100
- Plant response rating, Speedwell (speedwell [7]; 31 g ai/ha): 100
- Plant response rating, Speedwell (speedwell [7]; 62 g ai/ha): 100
- Plant response rating, Speedwell (speedwell [7]; 125 g ai/ha): 100
- Plant response rating (scale 0 to 100), Windgrass (windgrass [5]): 0
- Plant response rating, Windgrass (windgrass [5]; 31 g ai/ha): 0
- Plant response rating, Windgrass (windgrass [5]; 62 g ai/ha): 25
- Plant response rating, Windgrass (windgrass [5]; 125 g ai/ha): 35
- Plant response rating, Windgrass (windgrass [6]): 0

Compound: CCCNC(=O)c1cc(CC)n(Cc2cccc(OC(F)(F)F)c2)n1 [Compound 27]
- Windgrass plant response rating (windgrass [3]): 20
- Plant response rating, Windgrass (windgrass [6]): 40
